Laboratory results from publication PMC4710668, “Bioactivation of food genotoxicants 5-hydroxymethylfurfural and furfuryl alcohol by sulfotransferases from human, mouse and rat: a comparative study” (Archives of Toxicology, 2014).
Several values for one entry are separate records, joined by “and”; a condition that tells them apart may be missing. Equal entries are not always repeated. Marks after values point to notes of the source that are not given here.

Key:
Experiment in all cases: FFA sulfoconjugation assay (N6-MF-A formation with adenosine as scavenger)
rSult2a4 = assay type: biochemical, rat
Procedure: Cytosolic fractions containing individual SULT forms were prepared from transgenic S. typhimurium TA1538. Table S1 in the Supplementary Material provides a summary of the thirty SULTs used in the current study together with references describing the cloning of the respective S. typhimurium TA1538 strains. The expressed SULT forms are denoted with the prefixes h, m and r for human, mouse and rat enzymes, respectively. Bacteria were grown in Luria Broth medium containing ampicillin (100 µg/ml) by stirring for 8 h at 200 revolutions/min at 37 °C. The bacterial suspensions were centrifuged at 5,000 g for 10 min. The sediments were washed twice with 25 ml of 10 mM potassium phosphate buffer (pH 7.4)/50 mM potassium chloride (KCP buffer) and centrifuged again. The pellets were taken up in 800 µl KCP buffer and sonicated thrice for 15 s with 30 s pauses in between. The soluble fraction was attained by centrifuging for 1 h at 100,000 g. The supernatants (in the following termed cytosolic preparations) were frozen at −80 °C. The protein concentrations were determined according to a bicinchoninic acid (BCA) assay protocol. […]
The ribonucleoside adduct N ^6-((furan-2-yl)methyl)-adenosine (N ^6-MF-A) was analyzed by isotope-dilution UPLC-MS/MS with the same system described above using a HSS T3 column (1.8 µm, 2.1 × 100 mm, Waters). […] The fragmentations of N ^6-MF-A into the aglycone cation [N ^6-((furan-2-yl)methyl)-adenine-H]^+ (m/z = 348.1 → 216.1), the cleavage of the 2-methylfuranyl cation (m/z = 348.1 → 81.0) and the release of [N ^6-methyl-adenine-H]^+ (m/z = 348.1 → 148.0) were monitored together with the corresponding fragmentations of the isotope-labeled internal standard [^15N5]N ^6-MF-A for the formation of the aglycone (m/z = 353.1 → 221.1), the 2-methylfuran cation (m/z = 353.1 → 81.0) and ^15N5-labeled N ^6-methyl-adenine (m/z = 353.1 → 153.0). The N ^6-MF-A content of the incubation mixture was calculated from the ratio of peak areas resulting from the total ion current of all three MRM signals of the analyte. […]

hSULT1B1 = target: T1, hSULT1B1 (Homo sapiens, UniProt O43704); assay type: biochemical
T1 construct: made in house; host or cells: Salmonella typhimurium TA1538 (cytosolic fraction, not purified)
Procedure: (§1) Cytosolic fractions containing individual SULT forms were prepared from transgenic S. typhimurium TA1538. Table S1 in the Supplementary Material provides a summary of the thirty SULTs used in the current study together with references describing the cloning of the respective S. typhimurium TA1538 strains. The expressed SULT forms are denoted with the prefixes h, m and r for human, mouse and rat enzymes, respectively. Bacteria were grown in Luria Broth medium containing ampicillin (100 µg/ml) by stirring for 8 h at 200 revolutions/min at 37 °C. The bacterial suspensions were centrifuged at 5,000 g for 10 min. The sediments were washed twice with 25 ml of 10 mM potassium phosphate buffer (pH 7.4)/50 mM potassium chloride (KCP buffer) and centrifuged again. The pellets were taken up in 800 µl KCP buffer and sonicated thrice for 15 s with 30 s pauses in between. The soluble fraction was attained by centrifuging for 1 h at 100,000 g. The supernatants (in the following termed cytosolic preparations) were frozen at −80 °C. The protein concentrations were determined according to a bicinchoninic acid (BCA) assay protocol. The SULT concentrations in the cytosolic preparations were estimated after electrophoretic separation and immunodetection using inclusion bodies of different SULT forms as standards (Teubner et al. [2007]). The preparation of SULT inclusion bodies and the immunodetection of SULTs is described in the Supplementary Material, which also contains a representative immunoblot of different amounts of rSult1a1standard and a cytosolic preparation of S. typhimurium expressing rSult1a1 (Fig. S1).
(§2) The reaction mixtures were prepared as described for HMF. In addition, they contained 10 mM adenosine as a nucleophilic scavenger. Following incubation for 20 min at 37 °C, sulfoconjugation reactions were stopped by adding 100 µl cold methanol containing 175 fmol of [^15N5]N ^6-MF-A as the internal standard, mixed and centrifuged at 15,000 g for 10 min. The clear supernatants were subjected to UPLC-MS/MS analyses. Incubations were performed as quadruplicates. At higher concentrations, FFA reacts spontaneously with adenosine at low, but detectable, levels. To correct for the SULT-independent adduct formation, mixtures with SULT-deficient cytosols were carried along simultaneously in duplicate. Controls were subtracted from the experimental samples.
(§3) The ribonucleoside adduct N ^6-((furan-2-yl)methyl)-adenosine (N ^6-MF-A) was analyzed by isotope-dilution UPLC-MS/MS with the same system described above using a HSS T3 column (1.8 µm, 2.1 × 100 mm, Waters). Samples of 8 µl were eluted with 10 mM ammonium bicarbonate buffer, pH 8.0 (A) and methanol (B) using an 6-min gradient from 98 % solvent A to 15 % solvent A at 0.35 ml/min flow rate (Yin et al. [2013]). The electrospray interface of the mass spectrometer operated in the positive ion mode. The fragmentations of N ^6-MF-A into the aglycone cation [N ^6-((furan-2-yl)methyl)-adenine-H]^+ (m/z = 348.1 → 216.1), the cleavage of the 2-methylfuranyl cation (m/z = 348.1 → 81.0) and the release of [N ^6-methyl-adenine-H]^+ (m/z = 348.1 → 148.0) were monitored together with the corresponding fragmentations of the isotope-labeled internal standard [^15N5]N ^6-MF-A for the formation of the aglycone (m/z = 353.1 → 221.1), the 2-methylfuran cation (m/z = 353.1 → 81.0) and ^15N5-labeled N ^6-methyl-adenine (m/z = 353.1 → 153.0). The N ^6-MF-A content of the incubation mixture was calculated from the ratio of peak areas resulting from the total ion current of all three MRM signals of the analyte. For the fragmentation of N ^6-MF-A ([^15N5]N ^6-MF-A), collision energies were 20, 25 and 35 eV for the transitions m/z = 348.1 → 216.1 (m/z = 353.1 → 221.1), m/z = 348.1 → 148.0 (m/z = 353.1 → 153.0) and m/z = 348.1 → 81.0 (m/z = 353.1 → 81.0), respectively. […]

hSULT1C3 = target: T2, hSULT1C3 (Homo sapiens, UniProt Q6IMI6); assay type: biochemical
T2 construct: made in house; host or cells: Salmonella typhimurium TA1538 (cytosolic fraction, not purified)
Procedure: as §1, §2, §3

rSult2a3 = target: T3, rSult2a3 (Rattus norvegicus, UniProt P22789); assay type: biochemical
T3 construct: made in house; host or cells: Salmonella typhimurium TA1538 (cytosolic fraction, enzyme not purified)
T3 sequence (P22789 2-284 limits assumed): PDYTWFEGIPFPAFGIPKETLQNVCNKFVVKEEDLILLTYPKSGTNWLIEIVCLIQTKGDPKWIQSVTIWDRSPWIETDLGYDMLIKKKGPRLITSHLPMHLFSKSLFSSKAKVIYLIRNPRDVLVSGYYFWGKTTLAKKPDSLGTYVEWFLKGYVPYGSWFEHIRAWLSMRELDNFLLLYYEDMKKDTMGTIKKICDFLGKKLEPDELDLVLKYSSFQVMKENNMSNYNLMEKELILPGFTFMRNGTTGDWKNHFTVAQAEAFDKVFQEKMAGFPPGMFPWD
Procedure: as §1, §2, §3

mSult1d1 = target: T4, mSult1d1 (Mus musculus, UniProt Q3UZZ6); assay type: biochemical
T4 construct: made in house; host or cells: Salmonella typhimurium TA1538 (cytosolic fraction, enzyme not purified)
Procedure: as §1, §2, §3

rSult1a1 = target: T5, rSult1a1 (Rattus norvegicus, UniProt P17988); assay type: biochemical; conditions: 1 mM FFA
T5 construct: made in house; host or cells: Salmonella typhimurium TA1538 (cytosolic fraction, enzyme not purified)
Procedure: as §1, §2, §3

hSULT1E1 = target: T6, hSULT1E1 (Homo sapiens, UniProt P49888); assay type: biochemical
T6 construct: made in house; host or cells: Salmonella typhimurium TA1538 (cytosolic fraction, not purified)
T6 sequence (P49888 1-294): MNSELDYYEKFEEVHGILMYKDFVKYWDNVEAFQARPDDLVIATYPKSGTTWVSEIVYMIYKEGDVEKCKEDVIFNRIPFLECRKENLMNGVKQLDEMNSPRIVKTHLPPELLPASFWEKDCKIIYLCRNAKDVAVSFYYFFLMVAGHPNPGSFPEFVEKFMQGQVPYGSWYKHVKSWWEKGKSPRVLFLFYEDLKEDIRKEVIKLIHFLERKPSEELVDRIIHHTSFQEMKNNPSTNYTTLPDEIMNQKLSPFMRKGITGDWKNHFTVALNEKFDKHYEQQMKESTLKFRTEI
Procedure: as §1, §2, §3

[1] = 1 mM FFA, corrected by actual SULT concentration in the cytosolic preparation

T2 sequence (Q6IMI6 whole entry): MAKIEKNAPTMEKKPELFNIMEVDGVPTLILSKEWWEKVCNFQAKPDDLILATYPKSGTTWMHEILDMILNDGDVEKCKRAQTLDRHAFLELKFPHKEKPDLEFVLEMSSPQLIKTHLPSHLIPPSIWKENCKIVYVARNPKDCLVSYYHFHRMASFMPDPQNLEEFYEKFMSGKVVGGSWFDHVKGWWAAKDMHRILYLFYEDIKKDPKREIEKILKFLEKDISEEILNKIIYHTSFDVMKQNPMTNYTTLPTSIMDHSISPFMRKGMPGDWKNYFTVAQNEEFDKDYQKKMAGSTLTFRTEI
T5 sequence (P17988 whole entry): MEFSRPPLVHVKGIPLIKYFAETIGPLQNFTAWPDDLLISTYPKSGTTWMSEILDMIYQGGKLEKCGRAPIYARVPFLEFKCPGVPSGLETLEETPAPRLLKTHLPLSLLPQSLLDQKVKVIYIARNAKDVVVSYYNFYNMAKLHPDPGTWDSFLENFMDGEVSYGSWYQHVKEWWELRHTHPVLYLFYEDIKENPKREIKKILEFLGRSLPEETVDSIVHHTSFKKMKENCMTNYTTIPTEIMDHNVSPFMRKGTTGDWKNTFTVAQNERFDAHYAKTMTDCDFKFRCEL
T1 sequence (O43704 whole entry): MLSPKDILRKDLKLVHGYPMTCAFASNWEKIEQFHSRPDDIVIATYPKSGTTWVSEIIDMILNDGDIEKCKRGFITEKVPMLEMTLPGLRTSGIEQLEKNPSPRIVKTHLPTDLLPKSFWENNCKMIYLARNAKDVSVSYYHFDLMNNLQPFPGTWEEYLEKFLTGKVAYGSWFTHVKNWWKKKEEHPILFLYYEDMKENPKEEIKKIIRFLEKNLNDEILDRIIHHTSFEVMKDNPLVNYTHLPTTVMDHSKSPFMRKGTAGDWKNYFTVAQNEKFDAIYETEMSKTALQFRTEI
T4 sequence (Q3UZZ6 whole entry): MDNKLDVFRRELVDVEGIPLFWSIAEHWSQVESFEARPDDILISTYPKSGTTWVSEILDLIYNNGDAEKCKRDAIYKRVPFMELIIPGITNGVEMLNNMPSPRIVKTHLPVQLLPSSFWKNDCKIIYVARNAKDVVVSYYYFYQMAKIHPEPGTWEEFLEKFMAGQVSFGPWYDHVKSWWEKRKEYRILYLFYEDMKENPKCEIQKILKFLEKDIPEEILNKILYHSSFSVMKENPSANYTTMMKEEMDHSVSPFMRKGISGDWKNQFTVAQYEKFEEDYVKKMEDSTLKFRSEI

## OCc1ccco1 [FFA, furfuryl alcohol]
rSult2a4; 0.1 mM FFA
  Rate of N6-MF-A formation: <18 fmol N ^6-MF-A/mg/min
rSult2a4; 1 mM FFA
  Rate of N6-MF-A formation: <20 fmol N ^6-MF-A/mg/min
rSult2a4; 10 mM FFA
  Rate of N6-MF-A formation: <44 fmol N ^6-MF-A/mg/min
hSULT1B1; 0.1 mM FFA
  Rate of N6-MF-A formation: 23.3 ± 0.3 fmol N ^6-MF-A/mg/min
hSULT1B1; 1 mM FFA
  Rate of N6-MF-A formation: 211 ± 2 fmol N ^6-MF-A/mg/min
hSULT1B1; [1]
  Rate of N6-MF-A formation (corr.): 5,010 ± 50 fmol N ^6-MF-A/mg/min
hSULT1B1; 10 mM FFA
  Rate of N6-MF-A formation: 1,070 ± 20 fmol N ^6-MF-A/mg/min
hSULT1C3; 0.1 mM FFA
  Rate of N6-MF-A formation: <18 fmol N ^6-MF-A/mg/min
hSULT1C3; 1 mM FFA
  Rate of N6-MF-A formation: 61.8 ± 0.3 fmol N ^6-MF-A/mg/min
hSULT1C3; 1 mM FFA, corrected by SULT concentration reported in Meinl et al. [2006]
  Rate of N6-MF-A formation (corr.): 3,090 ± 10^b fmol N ^6-MF-A/mg/min
hSULT1C3; 10 mM FFA
  Rate of N6-MF-A formation: 248 ± 3 fmol N ^6-MF-A/mg/min
rSult2a3; 0.1 mM FFA
  Rate of N6-MF-A formation: 48.3 ± 1.3 fmol N ^6-MF-A/mg/min
rSult2a3; 1 mM FFA
  Rate of N6-MF-A formation: 461 ± 8 fmol N ^6-MF-A/mg/min
rSult2a3; 10 mM FFA
  Rate of N6-MF-A formation: 3,420 ± 30 fmol N ^6-MF-A/mg/min
mSult1d1; 0.1 mM FFA
  Rate of N6-MF-A formation: 52.5 ± 1.7 fmol N ^6-MF-A/mg/min
mSult1d1; 1 mM FFA
  Rate of N6-MF-A formation: 468 ± 6 fmol N ^6-MF-A/mg/min
mSult1d1; [1]
  Rate of N6-MF-A formation (corr.): 4,260 ± 60 fmol N ^6-MF-A/mg/min
mSult1d1; 10 mM FFA
  Rate of N6-MF-A formation: 2,610 ± 30 fmol N ^6-MF-A/mg/min
rSult1a1
  Rate of N6-MF-A formation: 31.8 ± 0.8 fmol N ^6-MF-A/mg/min
rSult1a1; corrected by actual SULT concentration in the cytosolic preparation
  Rate of N6-MF-A formation (corr.): 24,400 fmol N ^6-MF-A/mg/min and 24,400 ± 600 fmol N ^6-MF-A/mg/min
rSult1a1; corrected rates
  ratio of N6-MF-A formation, rSult1a1 vs rSult1b1: ~71 fold
  ratio of N6-MF-A formation, rSult1a1 vs rSult1c1: about 6 fold
hSULT1E1; 0.1 mM FFA
  Rate of N6-MF-A formation: <18 fmol N ^6-MF-A/mg/min
hSULT1E1; 1 mM FFA
  Rate of N6-MF-A formation: <20 fmol N ^6-MF-A/mg/min
hSULT1E1; 10 mM FFA
  Rate of N6-MF-A formation: 47.0 ± 0.9 fmol N ^6-MF-A/mg/min
